# Source: ChEMBL document CHEMBL4385643, “Design of a brain-penetrant CDK4/6 inhibitor for glioblastoma” (Bioorg Med Chem Lett, 2019)
# Columns and labels:
# [1] = biological target: STE20-like serine/threonine-protein kinase (Homo sapiens) (UniProt Q9H2G2); test: Inhibition of tracer 236 binding to recombinant full length human GST-tagged SLK expressed in baculovirus expression system at 0.1 uM measured after 60 mins by Lanthascreen assay relative to control
# [2] = biological target: Mitogen-activated protein kinase 8 (Homo sapiens) (UniProt P45983); test: Inhibition of recombinant full length human His-tagged JNK1alpha1 expressed in baculovirus expression system at 0.1 uM using serine/threonine-4 peptide as substrate incubated for 60 mins by Z'-LYTE assay relative to control
# [3] = biological target: Tyrosine-protein kinase receptor TYRO3 (Homo sapiens) (UniProt Q06418); test: Inhibition of recombinant human GST-tagged RSE catalytic domain (451 to 890 residues) expressed in baculovirus expression system at 0.1 uM using tyrosine-2 peptide as substrate incubated for 60 mins by Z'-LYTE assay relative to control
# Chain of Tyrosine-protein kinase receptor TYRO3 (Homo sapiens) (Q06418 whole entry, the tested form may be a part): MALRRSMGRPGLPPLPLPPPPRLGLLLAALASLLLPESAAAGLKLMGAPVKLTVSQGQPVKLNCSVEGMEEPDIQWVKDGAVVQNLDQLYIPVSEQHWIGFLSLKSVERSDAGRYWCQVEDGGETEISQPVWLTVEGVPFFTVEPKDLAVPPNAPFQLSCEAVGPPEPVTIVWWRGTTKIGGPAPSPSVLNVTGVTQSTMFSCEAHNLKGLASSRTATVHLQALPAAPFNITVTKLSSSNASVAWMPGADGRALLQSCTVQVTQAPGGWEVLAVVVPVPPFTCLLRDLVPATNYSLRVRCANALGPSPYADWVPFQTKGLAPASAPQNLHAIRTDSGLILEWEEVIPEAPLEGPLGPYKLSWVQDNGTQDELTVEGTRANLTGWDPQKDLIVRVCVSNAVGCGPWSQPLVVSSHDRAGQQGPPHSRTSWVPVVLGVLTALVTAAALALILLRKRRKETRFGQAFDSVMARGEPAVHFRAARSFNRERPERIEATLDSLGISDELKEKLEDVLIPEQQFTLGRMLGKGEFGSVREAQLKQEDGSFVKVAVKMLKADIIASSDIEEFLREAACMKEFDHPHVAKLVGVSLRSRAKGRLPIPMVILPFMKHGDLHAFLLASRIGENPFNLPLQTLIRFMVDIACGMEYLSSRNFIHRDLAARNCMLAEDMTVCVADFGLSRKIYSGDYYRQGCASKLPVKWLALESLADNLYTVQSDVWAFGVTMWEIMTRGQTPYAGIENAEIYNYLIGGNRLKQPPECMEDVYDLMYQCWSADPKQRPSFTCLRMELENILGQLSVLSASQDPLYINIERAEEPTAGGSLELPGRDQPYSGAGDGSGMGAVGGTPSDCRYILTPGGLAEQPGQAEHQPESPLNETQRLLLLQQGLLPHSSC
# [4] = biological target: Proto-oncogene tyrosine-protein kinase Src (Homo sapiens) (UniProt P12931); test: Inhibition of recombinant full length human His-tagged SRC expressed in baculovirus expression system at 0.1 uM using tyrosine-2 peptide as substrate incubated for 60 mins by Z'-LYTE assay relative to control
# Chain of Proto-oncogene tyrosine-protein kinase Src (Homo sapiens) (P12931 2-536 limits assumed): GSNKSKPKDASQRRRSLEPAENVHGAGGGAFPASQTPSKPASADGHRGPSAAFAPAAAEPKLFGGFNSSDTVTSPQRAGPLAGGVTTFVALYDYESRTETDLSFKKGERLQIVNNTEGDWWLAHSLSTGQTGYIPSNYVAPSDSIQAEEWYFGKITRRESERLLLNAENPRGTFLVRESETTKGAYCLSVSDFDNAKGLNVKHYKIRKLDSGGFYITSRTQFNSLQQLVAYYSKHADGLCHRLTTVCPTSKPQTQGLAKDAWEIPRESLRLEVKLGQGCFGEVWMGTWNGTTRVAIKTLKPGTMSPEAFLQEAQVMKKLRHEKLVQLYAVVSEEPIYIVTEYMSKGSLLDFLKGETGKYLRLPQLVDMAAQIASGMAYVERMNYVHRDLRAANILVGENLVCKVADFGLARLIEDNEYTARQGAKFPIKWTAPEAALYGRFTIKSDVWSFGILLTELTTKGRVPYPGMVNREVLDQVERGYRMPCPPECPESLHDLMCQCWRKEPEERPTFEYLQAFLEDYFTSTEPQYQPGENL
# [5] = biological target: Casein kinase I isoform epsilon (Homo sapiens) (UniProt P49674); test: Inhibition of recombinant full length human His-tagged CK1 epsilon1 expressed in baculovirus expression system at 0.1 uM using serine/threonine-11 peptide as substrate incubated for 60 mins by Z'-LYTE assay relative to control
# Chain of Casein kinase I isoform epsilon (Homo sapiens) (P49674 whole entry, looked up, canonical isoform): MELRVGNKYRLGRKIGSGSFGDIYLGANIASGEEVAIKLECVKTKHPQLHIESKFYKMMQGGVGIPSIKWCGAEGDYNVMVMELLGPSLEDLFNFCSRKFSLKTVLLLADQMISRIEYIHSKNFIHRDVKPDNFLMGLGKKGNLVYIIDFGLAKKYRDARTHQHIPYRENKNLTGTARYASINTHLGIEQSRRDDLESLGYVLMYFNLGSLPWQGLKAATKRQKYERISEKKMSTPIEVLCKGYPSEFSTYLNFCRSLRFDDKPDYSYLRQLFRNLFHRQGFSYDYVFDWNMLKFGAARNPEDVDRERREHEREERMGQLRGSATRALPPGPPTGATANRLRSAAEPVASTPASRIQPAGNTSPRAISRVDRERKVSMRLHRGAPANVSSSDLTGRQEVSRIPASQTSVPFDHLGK
# [6] = biological target: Mitogen-activated protein kinase kinase kinase 2 (Homo sapiens) (UniProt Q9Y2U5); test: Inhibition of tracer 236 binding to recombinant full length human GST-tagged MEKK2 expressed in baculovirus expression system at 0.1 uM measured after 60 mins by Lanthascreen assay relative to control
# [7] = biological target: Mitogen-activated protein kinase kinase kinase 10 (Homo sapiens) (UniProt Q02779); test: Inhibition of tracer 236 binding to recombinant full length human GST-tagged MLK2 expressed in baculovirus expression system at 0.1 uM measured after 60 mins by Lanthascreen assay
# [8] = biological target: Beta-adrenergic receptor kinase 1 (Homo sapiens) (UniProt P25098); test: Inhibition of recombinant full length human His-tagged GRK2 expressed in baculovirus expression system at 0.1 uM using serine/threonine-16 peptide as substrate incubated for 60 mins by Z'-LYTE assay relative to control
# [9] = biological target: Tyrosine-protein kinase ZAP-70 (Homo sapiens) (UniProt P43403); test: Inhibition of recombinant full length human His-tagged ZAP70 expressed in baculovirus expression system at 0.1 uM using tyrosine-7 peptide as substrate incubated for 60 mins by Z'-LYTE assay relative to control
# [10] = biological target: Tyrosine-protein kinase Blk (Homo sapiens) (UniProt P51451); test: Inhibition of recombinant full length human His-tagged BLK expressed in baculovirus expression system at 0.1 uM using tyrosine-1 peptide as substrate incubated for 60 mins by Z'-LYTE assay relative to control
# [11] = biological target: Tyrosine-protein kinase Yes (Homo sapiens) (UniProt P07947); test: Inhibition of recombinant full length human GST-tagged YES expressed in baculovirus expression system at 0.1 uM using tyrosine-2 peptide as substrate incubated for 60 mins by Z'-LYTE assay relative to control
# [12] = biological target: Activated CDC42 kinase 1 (Homo sapiens) (UniProt Q07912); test: Inhibition of tracer 236 binding to recombinant human GST-tagged TNK2 catalytic domain (110 to 476 residues) expressed in baculovirus expression system at 0.1 uM measured after 60 mins by Lanthascreen assay
# [13] = biological target: Tyrosine-protein kinase Mer (Homo sapiens) (UniProt Q12866); test: Inhibition of recombinant human GST-tagged MER (578 to 872 residues) expressed in baculovirus expression system at 0.1 uM using tyrosine-2 peptide as substrate incubated for 60 mins by Z'-LYTE assay relative to control
# [14] = biological target: Calcium/calmodulin-dependent protein kinase type IV (Homo sapiens) (UniProt Q16566); test: Inhibition of recombinant full length human full length GST-tagged CAMK4 expressed in Escherichia coli expression system at 0.1 uM using serine/threonine-13 peptide as substrate incubated for 60 mins by Z'-LYTE assay relative to control
# Chain of Calcium/calmodulin-dependent protein kinase type IV (Homo sapiens) (Q16566 whole entry, the tested form may be a part): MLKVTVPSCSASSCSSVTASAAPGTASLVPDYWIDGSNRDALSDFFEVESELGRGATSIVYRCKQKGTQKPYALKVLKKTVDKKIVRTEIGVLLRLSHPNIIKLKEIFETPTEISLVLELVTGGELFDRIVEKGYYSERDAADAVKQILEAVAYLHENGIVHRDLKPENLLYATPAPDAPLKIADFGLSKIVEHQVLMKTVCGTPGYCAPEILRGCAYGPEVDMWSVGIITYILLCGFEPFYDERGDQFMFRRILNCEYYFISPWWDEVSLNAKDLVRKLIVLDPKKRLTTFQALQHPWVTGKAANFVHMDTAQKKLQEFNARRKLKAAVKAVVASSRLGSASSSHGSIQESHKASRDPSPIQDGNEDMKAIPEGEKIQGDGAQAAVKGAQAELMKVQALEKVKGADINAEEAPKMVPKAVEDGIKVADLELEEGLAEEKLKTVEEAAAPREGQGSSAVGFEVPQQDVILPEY
# [15] = biological target: Muscle, skeletal receptor tyrosine-protein kinase (Homo sapiens) (UniProt O15146); test: Inhibition of recombinant human GST-tagged MUSK (519 to 869 residues) expressed in baculovirus expression system at 0.1 uM using tyrosine-4 peptide as substrate incubated for 60 mins by Z'-LYTE assay relative to control
# Chain of Muscle, skeletal receptor tyrosine-protein kinase (Homo sapiens) (O15146 whole entry, the tested form may be a part): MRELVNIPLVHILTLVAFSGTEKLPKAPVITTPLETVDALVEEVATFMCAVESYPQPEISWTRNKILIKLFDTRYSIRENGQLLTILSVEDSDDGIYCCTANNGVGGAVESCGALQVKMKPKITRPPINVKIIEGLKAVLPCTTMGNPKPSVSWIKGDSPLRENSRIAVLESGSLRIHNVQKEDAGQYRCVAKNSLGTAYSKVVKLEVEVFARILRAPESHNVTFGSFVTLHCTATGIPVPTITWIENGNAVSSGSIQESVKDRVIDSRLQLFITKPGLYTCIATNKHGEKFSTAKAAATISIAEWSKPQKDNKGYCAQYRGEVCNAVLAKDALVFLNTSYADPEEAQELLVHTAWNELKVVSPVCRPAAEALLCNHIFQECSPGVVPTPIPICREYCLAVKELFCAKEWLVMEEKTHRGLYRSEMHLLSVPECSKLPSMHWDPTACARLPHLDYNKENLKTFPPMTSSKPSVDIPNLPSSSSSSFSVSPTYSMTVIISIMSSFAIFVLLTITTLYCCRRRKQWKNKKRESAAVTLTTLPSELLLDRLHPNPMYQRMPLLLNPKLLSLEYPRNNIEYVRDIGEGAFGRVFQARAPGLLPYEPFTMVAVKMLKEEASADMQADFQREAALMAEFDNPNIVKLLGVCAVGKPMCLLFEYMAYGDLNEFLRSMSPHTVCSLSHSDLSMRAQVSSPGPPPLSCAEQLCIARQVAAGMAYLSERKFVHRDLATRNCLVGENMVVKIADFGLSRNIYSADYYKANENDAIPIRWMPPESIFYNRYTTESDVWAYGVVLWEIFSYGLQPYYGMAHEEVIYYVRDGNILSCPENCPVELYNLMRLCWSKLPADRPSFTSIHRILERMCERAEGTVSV
# [16] = biological target: Tyrosine-protein kinase CSK (Homo sapiens) (UniProt P41240); test: Inhibition of recombinant full length human His-tagged CSK expressed in Escherichia coli expression system at 0.1 uM using tyrosine-2 peptide as substrate incubated for 60 mins by Z'-LYTE assay relative to control
# Chain of Tyrosine-protein kinase CSK (Homo sapiens) (P41240 2-450 limits assumed): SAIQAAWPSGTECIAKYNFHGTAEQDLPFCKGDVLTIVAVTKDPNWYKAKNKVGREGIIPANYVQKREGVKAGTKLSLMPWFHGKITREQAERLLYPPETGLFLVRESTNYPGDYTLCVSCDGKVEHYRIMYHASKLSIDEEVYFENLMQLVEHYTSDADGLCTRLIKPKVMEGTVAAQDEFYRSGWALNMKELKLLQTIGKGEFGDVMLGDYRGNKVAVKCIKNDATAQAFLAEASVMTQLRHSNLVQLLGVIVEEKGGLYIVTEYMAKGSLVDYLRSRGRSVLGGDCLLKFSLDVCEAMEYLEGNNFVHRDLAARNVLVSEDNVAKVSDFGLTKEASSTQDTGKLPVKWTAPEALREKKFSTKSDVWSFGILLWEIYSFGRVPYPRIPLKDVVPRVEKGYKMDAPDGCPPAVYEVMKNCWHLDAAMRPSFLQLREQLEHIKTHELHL
# [17] = biological target: Mitogen-activated protein kinase 12 (Homo sapiens) (UniProt P53778); test: Inhibition of recombinant full length human His-tagged p38gamma expressed in baculovirus expression system at 0.1 uM using serine/threonine-3 peptide as substrate incubated for 60 mins by Z'-LYTE assay relative to control
# Chain of Mitogen-activated protein kinase 12 (Homo sapiens) (P53778 whole entry): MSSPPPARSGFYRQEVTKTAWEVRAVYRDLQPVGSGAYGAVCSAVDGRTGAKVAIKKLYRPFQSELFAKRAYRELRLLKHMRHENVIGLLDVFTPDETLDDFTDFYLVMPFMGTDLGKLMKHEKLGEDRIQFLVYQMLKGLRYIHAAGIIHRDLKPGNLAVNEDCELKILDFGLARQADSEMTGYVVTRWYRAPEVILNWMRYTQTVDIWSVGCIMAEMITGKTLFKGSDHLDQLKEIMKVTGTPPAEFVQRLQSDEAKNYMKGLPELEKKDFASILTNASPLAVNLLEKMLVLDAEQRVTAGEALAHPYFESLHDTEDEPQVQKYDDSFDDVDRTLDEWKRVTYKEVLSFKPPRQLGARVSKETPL
# [18] = biological target: CDK8/Cyclin C (Homo sapiens) (UniProt P49336+P24863); test: Inhibition of tracer 236 binding to recombinant full length human His-tagged CDK8/cyclin C expressed in baculovirus expression system at 0.1 uM measured after 60 mins by Lanthascreen assay
# [19] = biological target: RAC-alpha serine/threonine-protein kinase (Homo sapiens) (UniProt P31749); test: Inhibition of recombinant full length human His-tagged AKT1 expressed in baculovirus expression system at 0.1 uM using serine/threonine-06 peptide as substrate incubated for 60 mins by Z'-LYTE assay relative to control
# [20] = biological target: Mitogen-activated protein kinase kinase kinase 20 (Homo sapiens) (UniProt Q9NYL2); test: Inhibition of recombinant full length human GST-tagged ZAK expressed in baculovirus expression system at 0.1 uM using CREBtide as substrate 60 mins by Lanthascreen assay relative to control
# Chain of Mitogen-activated protein kinase kinase kinase 20 (Homo sapiens) (Q9NYL2 2-800 limits assumed): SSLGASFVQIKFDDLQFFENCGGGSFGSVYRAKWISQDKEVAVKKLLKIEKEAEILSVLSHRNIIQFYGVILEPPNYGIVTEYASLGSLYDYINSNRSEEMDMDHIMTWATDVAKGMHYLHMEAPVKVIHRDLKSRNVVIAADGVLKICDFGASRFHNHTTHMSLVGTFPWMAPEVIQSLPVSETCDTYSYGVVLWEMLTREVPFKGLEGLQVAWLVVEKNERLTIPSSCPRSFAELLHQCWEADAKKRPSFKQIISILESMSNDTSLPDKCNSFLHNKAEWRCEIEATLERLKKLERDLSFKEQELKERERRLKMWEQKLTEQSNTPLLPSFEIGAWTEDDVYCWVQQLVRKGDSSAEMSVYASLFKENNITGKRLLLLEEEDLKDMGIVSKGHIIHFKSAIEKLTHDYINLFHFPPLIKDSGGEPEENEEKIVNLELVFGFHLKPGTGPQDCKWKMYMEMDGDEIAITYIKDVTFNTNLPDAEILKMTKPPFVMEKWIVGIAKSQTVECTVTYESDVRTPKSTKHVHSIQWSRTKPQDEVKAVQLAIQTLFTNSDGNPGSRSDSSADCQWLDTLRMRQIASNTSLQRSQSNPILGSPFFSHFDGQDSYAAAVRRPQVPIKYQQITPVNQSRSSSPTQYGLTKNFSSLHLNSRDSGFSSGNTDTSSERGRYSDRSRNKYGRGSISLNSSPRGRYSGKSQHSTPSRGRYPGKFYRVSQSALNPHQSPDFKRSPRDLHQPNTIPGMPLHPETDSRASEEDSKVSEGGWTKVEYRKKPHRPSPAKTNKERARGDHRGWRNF
# [21] = biological target: Tyrosine-protein kinase BTK (Homo sapiens) (UniProt Q06187); test: Inhibition of recombinant full length human His-tagged BTK expressed in baculovirus expression system at 0.1 uM using tyrosine-1 peptide as substrate incubated for 60 mins by Z'-LYTE assay relative to control
# [22] = biological target: MAP kinase-activated protein kinase 5 (Homo sapiens) (UniProt Q8IW41); test: Inhibition of recombinant full length human His-tagged PRAK expressed in baculovirus expression system at 0.1 uM using serine/threonine-4 peptide as substrate incubated for 60 mins by Z'-LYTE assay relative to control
# [23] = biological target: Casein kinase I isoform alpha (Homo sapiens) (UniProt P48729); test: Inhibition of recombinant full length human GST-tagged CK1alpha1 expressed in baculovirus expression system at 0.1 uM using serine/threonine-11 peptide as substrate incubated for 60 mins by Z'-LYTE assay relative to control
# [24] = biological target: Tyrosine-protein kinase Fes/Fps (Homo sapiens) (UniProt P07332); test: Inhibition of recombinant full length human His-tagged FES (FPS) expressed in baculovirus expression system at 0.1 uM using tyrosine-1 peptide as substrate incubated for 60 mins by Z'-LYTE assay relative to control
SMILES,inhibition [1],inhibition [2],inhibition [3],inhibition [4],inhibition [5],inhibition [6],inhibition [7],inhibition [8],inhibition [9],inhibition [10],inhibition [11],inhibition [12],inhibition [13],inhibition [14],inhibition [15],inhibition [16],inhibition [17],inhibition [18],inhibition [19],inhibition [20],further results
CCN1CC2(C1)CN(c1ccc(Nc3ncc(F)c(-c4cnn5c4[C@H](C)CCCC5)n3)nc1)C2,10.5%,78%,31%,1.5%,7.5%,10%,18%,0.5%,7%,3.5%,8.5%,5%,4%,10%,10.5%,3%,16%,75%,2%,5%,inhibition [21]: 4%; inhibition [22]: 13.5%; inhibition [23]: 1.5%; inhibition [24]: 19%
CCN1CCN(Cc2ccc(Nc3ncc(F)c(-c4cc(F)c5nc(C)n(C(C)C)c5c4)n3)nc2)CC1 [ABEMACICLIB],9.3%,46.2%,17%,7.5%,8%,2.2%,10.6%,0%,-0.5%,12.5%,9%,2.4%,20.5%,2.5%,24.8%,4%,5%,24.2%,6.5%,1.9%,inhibition [21]: 3%; inhibition [22]: 5%; inhibition [23]: 4.5%; inhibition [24]: 11%
